From ChEMBL document CHEMBL1133208, “Synthesis and biological properties of new 1beta-methylcarbapenems having tetrazolothioether moiety” (Bioorg Med Chem Lett, 2000)
≈ marks a conversion by molar mass, not a printed value.

How the values were obtained:
[1] = The area under concentration-time curve(AUC) was determined at 20 mg/kg of compound dose, administered intravenously in rat; assay type: ADME, organism-based; design: dose 20 mg/kg, route intravenous; settings: in vivo, iv
[2] = Pharmacokinetic studies were carried out to determine the clearance after administration at 20 mg/kg intravenously in rat; assay type: ADME, organism-based; design: dose 20 mg/kg, route intravenous; settings: in vivo, iv
Enterobacter cloacae = assay: In vitro antibacterial activity against Enterobacter cloacae 1321E by agar dilution method using Mueller-Hinton; assay type: functional
Escherichia coli [3] = assay: In vitro antibacterial activity against Escherichia coli 078 by agar dilution method using Mueller-Hinton; assay type: functional
Escherichia coli [4] = assay: In vitro antibacterial activity against Escherichia coli 1507E by agar dilution method using Mueller-Hinton; assay type: functional
Klebsiella aerogenes = assay: In vitro antibacterial activity against Klebsiella aerogenes 1522E by agar dilution method using Mueller-Hinton; assay type: functional
Pseudomonas aeruginosa [5] = assay: In vitro antibacterial activity against Pseudomonas aeruginosa 1771M by agar dilution method using Mueller-Hinton; assay type: functional
Pseudomonas aeruginosa [6] = assay: In vitro antibacterial activity against Pseudomonas aeruginosa 9027 by agar dilution method using Mueller-Hinton; assay type: functional
Pseudomonas aeruginosa [7] = assay: In vitro antibacterial activity against Pseudomonas aeruginosa 1592E by agar dilution method using Mueller-Hinton; assay type: functional
Salmonella typhimurium = assay: In vitro antibacterial activity against Salmonella Typhimurium by agar dilution method using Mueller-Hinton; assay type: functional, Salmonella enterica subsp. enterica serovar Typhimurium; settings: Salmonella enterica
Staphylococcus aureus [8] = assay: In vitro antibacterial activity against Staphylococcus aureus SG 285 by agar dilution method using Mueller-Hinton; assay type: functional
Staphylococcus aureus [9] = assay: In vitro antibacterial activity against Staphylococcus aureus SG 503 by agar dilution method using Mueller-Hinton; assay type: functional
Staphylococcus aureus [10] = assay: In vitro antibacterial activity against Staphylococcus aureus SG 511 by agar dilution method using Mueller-Hinton; assay type: functional
Streptococcus pyogenes = assay: In vitro antibacterial activity against Streptococcus pyogenes 308A by agar dilution method using Mueller-Hinton; assay type: functional

Row | MIC (Enterobacter cloacae) [mg/L] | MIC (Escherichia coli [3]) [mg/L] | MIC (Escherichia coli [4]) [mg/L] | MIC (Klebsiella aerogenes) [mg/L] | MIC (Pseudomonas aeruginosa [5]) [mg/L] | MIC (Pseudomonas aeruginosa [6]) [mg/L] | MIC (Pseudomonas aeruginosa [7]) [mg/L] | MIC (Salmonella typhimurium) [mg/L] | MIC (Staphylococcus aureus [8]) [mg/L] | MIC (Staphylococcus aureus [9]) [mg/L] | MIC (Staphylococcus aureus [10]) [mg/L] | MIC (Streptococcus pyogenes) [mg/L] | SMILES | AUC [1] [µg·h/mL] | clearance [2] [L/h/kg]
1 | 0.025 (≈ 0.0567 µM) | 0.025 (≈ 0.0567 µM) | 0.025 (≈ 0.0567 µM) | 0.025 (≈ 0.0567 µM) | 0.195 (≈ 0.443 µM) | 0.781 (≈ 1.77 µM) | 0.781 (≈ 1.77 µM) | 0.025 (≈ 0.0567 µM) | 0.049 (≈ 0.111 µM) | 0.025 (≈ 0.0567 µM) | 0.025 (≈ 0.0567 µM) | 0.004 (≈ 0.00908 µM) | C[C@@H](O)[C@H]1C(=O)N2C(C(=O)O)=C(S[C@@H]3CN[C@H](CSc4nnnn4C)C3)[C@H](C)[C@H]12 | 15.9 | 1.31
2 | 0.049 (≈ 0.0985 µM) | 0.025 (≈ 0.0502 µM) | 0.049 (≈ 0.0985 µM) | 0.098 (≈ 0.197 µM) | 0.391 (≈ 0.786 µM) | 1.56 (≈ 3.14 µM) | 1.56 (≈ 3.14 µM) | 0.098 (≈ 0.197 µM) | 0.195 (≈ 0.392 µM) | 0.098 (≈ 0.197 µM) | 0.195 (≈ 0.392 µM) | 0.013 (≈ 0.0261 µM) | CNC(=O)Cn1nnnc1SC[C@@H]1C[C@H](SC2=C(C(=O)O)N3C(=O)[C@H]([C@@H](C)O)[C@H]3[C@H]2C)CN1 |  | 
3 | 0.098 (≈ 0.195 µM) | 0.098 (≈ 0.195 µM) | 0.195 (≈ 0.387 µM) | 0.195 (≈ 0.387 µM) | 0.781 (≈ 1.55 µM) | 50 (≈ 99.3 µM) | 50 (≈ 99.3 µM) | 0.049 (≈ 0.0973 µM) | 0.098 (≈ 0.195 µM) | 0.049 (≈ 0.0973 µM) | 0.049 (≈ 0.0973 µM) | 0.007 (≈ 0.0139 µM) | C[C@@H](O)[C@H]1C(=O)N2C(C(=O)O)=C(S[C@@H]3CN[C@H](CSc4nnnn4-c4ccncc4)C3)[C@H](C)[C@H]12 |  | 
4 | 0.025 (≈ 0.0445 µM) | 0.025 (≈ 0.0445 µM) | 0.025 (≈ 0.0445 µM) | 0.049 (≈ 0.0872 µM) | 0.391 (≈ 0.696 µM) | 6.25 (≈ 11.1 µM) | 12.5 (≈ 22.3 µM) | 0.049 (≈ 0.0872 µM) | 0.098 (≈ 0.174 µM) | 0.025 (≈ 0.0445 µM) | 0.098 (≈ 0.174 µM) | 0.007 (≈ 0.0125 µM) | C[C@@H](O)[C@H]1C(=O)N2C(C(=O)O)=C(S[C@@H]3CN[C@H](CSc4nnnn4CCS(=O)(=O)N(C)C)C3)[C@H](C)[C@H]12 |  | 
5 | 0.025 (≈ 0.0502 µM) | 0.025 (≈ 0.0502 µM) | 0.025 (≈ 0.0502 µM) | 0.049 (≈ 0.0985 µM) | 0.195 (≈ 0.392 µM) | 1.56 (≈ 3.14 µM) | 0.781 (≈ 1.57 µM) | 0.049 (≈ 0.0985 µM) | 0.098 (≈ 0.197 µM) | 0.025 (≈ 0.0502 µM) | 0.098 (≈ 0.197 µM) | 0.013 (≈ 0.0261 µM) | C[C@@H](O)[C@H]1C(=O)N2C(C(=O)O)=C(S[C@@H]3CN[C@H](CSc4nnnn4CCC(N)=O)C3)[C@H](C)[C@H]12 |  | 
6 | 0.098 (≈ 0.195 µM) | 0.195 (≈ 0.388 µM) | 0.391 (≈ 0.778 µM) | 0.391 (≈ 0.778 µM) | 3.12 (≈ 6.22 µM) | 50 (≈ 99.5 µM) | 50 (≈ 99.5 µM) | 0.098 (≈ 0.195 µM) | 0.049 (≈ 0.0975 µM) | 0.025 (≈ 0.0497 µM) | 0.049 (≈ 0.0975 µM) | 0.007 (≈ 0.0139 µM) | C[C@@H](O)[C@H]1C(=O)N2C(C(=O)O)=C(S[C@@H]3CN[C@H](CSc4nnnn4-c4ccccc4)C3)[C@H](C)[C@H]12 |  | 
7 | 0.049 (≈ 0.0985 µM) | 0.025 (≈ 0.0502 µM) | 0.049 (≈ 0.0985 µM) | 0.098 (≈ 0.197 µM) | 0.195 (≈ 0.392 µM) | 3.12 (≈ 6.28 µM) | 3.12 (≈ 6.28 µM) | 0.098 (≈ 0.197 µM) | 0.098 (≈ 0.197 µM) | 0.025 (≈ 0.0502 µM) | 0.049 (≈ 0.0985 µM) | 0.013 (≈ 0.0261 µM) | C[C@@H](O)[C@H]1C(=O)N2C(C(=O)O)=C(S[C@@H]3CN[C@H](CSc4nnnn4CCN(C)C)C3)[C@H](C)[C@H]12 |  | 
8 | 0.049 (≈ 0.0958 µM) | 0.025 (≈ 0.0489 µM) | 0.049 (≈ 0.0958 µM) | 0.098 (≈ 0.192 µM) | 0.391 (≈ 0.764 µM) | 3.12 (≈ 6.11 µM) | 3.12 (≈ 6.11 µM) | 0.049 (≈ 0.0958 µM) | 0.195 (≈ 0.381 µM) | 0.049 (≈ 0.0958 µM) | 0.195 (≈ 0.381 µM) | 0.013 (≈ 0.0254 µM) | C[C@@H](O)[C@H]1C(=O)N2C(C(=O)O)=C(S[C@@H]3CN[C@H](CSc4nnnn4CC(=O)N(C)C)C3)[C@H](C)[C@H]12 |  | 
9 | 0.098 (≈ 0.192 µM) | 0.049 (≈ 0.0958 µM) | 0.098 (≈ 0.192 µM) | 0.195 (≈ 0.381 µM) | 0.195 (≈ 0.381 µM) | 0.781 (≈ 1.53 µM) | 0.781 (≈ 1.53 µM) | 0.195 (≈ 0.381 µM) | 0.195 (≈ 0.381 µM) | 0.049 (≈ 0.0958 µM) | 0.098 (≈ 0.192 µM) | 0.025 (≈ 0.0489 µM) | C[C@@H](O)[C@H]1C(=O)N2C(C(=O)[O-])=C(S[C@@H]3CN[C@H](CSc4nnnn4CC[N+](C)(C)C)C3)[C@H](C)[C@H]12 |  | 
10 | 0.025 (≈ 0.0489 µM) | 0.025 (≈ 0.0489 µM) | 0.025 (≈ 0.0489 µM) | 0.049 (≈ 0.0958 µM) | 0.391 (≈ 0.764 µM) | 1.56 (≈ 3.05 µM) | 1.56 (≈ 3.05 µM) | 0.049 (≈ 0.0958 µM) | 0.098 (≈ 0.192 µM) | 0.049 (≈ 0.0958 µM) | 0.098 (≈ 0.192 µM) | 0.007 (≈ 0.0137 µM) | CNC(=O)CCn1nnnc1SC[C@@H]1C[C@H](SC2=C(C(=O)O)N3C(=O)[C@H]([C@@H](C)O)[C@H]3[C@H]2C)CN1 |  | 
11 | 0.025 (≈ 0.0456 µM) | 0.025 (≈ 0.0456 µM) | 0.025 (≈ 0.0456 µM) | 0.049 (≈ 0.0895 µM) | 0.391 (≈ 0.714 µM) | 3.12 (≈ 5.71 µM) | 3.12 (≈ 5.71 µM) | 0.049 (≈ 0.0895 µM) | 0.098 (≈ 0.179 µM) | 0.025 (≈ 0.0456 µM) | 0.098 (≈ 0.179 µM) | 0.007 (≈ 0.0128 µM) | CNS(=O)(=O)CCn1nnnc1SC[C@@H]1C[C@H](SC2=C(C(=O)O)N3C(=O)[C@H]([C@@H](C)O)[C@H]3[C@H]2C)CN1 |  | 
12 | 0.049 (≈ 0.104 µM) | 0.025 (≈ 0.0531 µM) | 0.025 (≈ 0.0531 µM) | 0.049 (≈ 0.104 µM) | 0.195 (≈ 0.414 µM) | 1.56 (≈ 3.32 µM) | 1.56 (≈ 3.32 µM) | 0.049 (≈ 0.104 µM) | 0.098 (≈ 0.208 µM) | 0.049 (≈ 0.104 µM) | 0.098 (≈ 0.208 µM) | 0.007 (≈ 0.0149 µM) | C[C@@H](O)[C@H]1C(=O)N2C(C(=O)O)=C(S[C@@H]3CN[C@H](CSc4nnnn4CCO)C3)[C@H](C)[C@H]12 |  | 

Row | SMILES | MIC (Enterobacter cloacae) [mg/L] | MIC (Escherichia coli [3]) [mg/L] | MIC (Escherichia coli [4]) [mg/L] | MIC (Klebsiella aerogenes) [mg/L] | MIC (Pseudomonas aeruginosa [5]) [mg/L] | MIC (Pseudomonas aeruginosa [6]) [mg/L] | MIC (Pseudomonas aeruginosa [7]) [mg/L] | MIC (Salmonella typhimurium) [mg/L] | MIC (Staphylococcus aureus [8]) [mg/L] | MIC (Staphylococcus aureus [9]) [mg/L] | MIC (Staphylococcus aureus [10]) [mg/L] | MIC (Streptococcus pyogenes) [mg/L] | AUC [1] [µg·h/mL] | clearance [2] [L/h/kg]
13 | C[C@@H](O)[C@H]1C(=O)N2C(C(=O)O)=C(SCCNC=N)C[C@H]12 [IMIPENEM ANHYDROUS] | 0.195 (≈ 0.651 µM) | 0.098 (≈ 0.327 µM) | 0.195 (≈ 0.651 µM) | 0.391 (≈ 1.31 µM) | 0.195 (≈ 0.651 µM) | 0.781 (≈ 2.61 µM) | 1.56 (≈ 5.22 µM) | 0.781 (≈ 2.61 µM) | 0.025 (≈ 0.0835 µM) | 0.013 (≈ 0.0434 µM) | 0.025 (≈ 0.0835 µM) | 0.007 (≈ 0.0234 µM) | 5.5 | 3.69
14 | C[C@@H](O)[C@H]1C(=O)N2C(C(=O)O)=C(S[C@@H]3CN[C@H](C(=O)N(C)C)C3)[C@H](C)[C@H]12 [MEROPENEM] | 0.025 (≈ 0.0652 µM) | 0.025 (≈ 0.0652 µM) | 0.025 (≈ 0.0652 µM) | 0.049 (≈ 0.128 µM) | 0.049 (≈ 0.128 µM) | 0.195 (≈ 0.509 µM) | 0.195 (≈ 0.509 µM) | 0.049 (≈ 0.128 µM) | 0.195 (≈ 0.509 µM) | 0.098 (≈ 0.256 µM) | 0.195 (≈ 0.509 µM) | 0.013 (≈ 0.0339 µM) |  | 
